According to paper PMC9549714 (iScience, 2022):

What was measured:
[1] = molecular target: T1, PPAT (phosphoribosyl pyrophosphate amidotransferase) (Homo sapiens, UniProt Q06203); assay: glutamate production from glutamine and PRPP, glutamate assay kit; type: biochemical
[2] = molecular target: T1, PPAT (phosphoribosyl pyrophosphate amidotransferase); assay: PPAT activity assay, presumably as above; type: biochemical

T1 sequence (Q06203 12-517): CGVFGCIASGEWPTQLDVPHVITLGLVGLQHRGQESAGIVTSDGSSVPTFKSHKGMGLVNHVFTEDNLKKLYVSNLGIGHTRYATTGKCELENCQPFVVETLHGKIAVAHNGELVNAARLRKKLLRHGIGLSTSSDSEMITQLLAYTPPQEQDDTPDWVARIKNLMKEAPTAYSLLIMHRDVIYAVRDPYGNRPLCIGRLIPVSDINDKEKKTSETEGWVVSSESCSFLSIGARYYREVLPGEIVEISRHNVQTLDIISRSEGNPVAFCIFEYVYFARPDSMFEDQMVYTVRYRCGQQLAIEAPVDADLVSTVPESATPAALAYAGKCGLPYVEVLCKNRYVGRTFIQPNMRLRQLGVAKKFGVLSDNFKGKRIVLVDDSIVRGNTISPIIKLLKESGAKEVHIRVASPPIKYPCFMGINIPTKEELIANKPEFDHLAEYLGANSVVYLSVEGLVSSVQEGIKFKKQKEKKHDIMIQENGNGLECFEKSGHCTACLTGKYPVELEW

IC50 [1] [µM] | IC50 [2] [µM] | SMILES
7.5 |  | Cc1cc2nc3c(=O)[nH]c(=O)nc-3n(C[C@H](O)[C@H](O)[C@H](O)COP(=O)(O)O)c2cc1C [ZINC8551105, riboflavin 5′-monophosphate]
 | 49.9 | Cc1cc2nc3c(=O)[nH]c(=O)nc-3n(C[C@H](O)[C@H](O)[C@H](O)CO)c2cc1C [riboflavin]
